# From patent US7326721B2 (Hypnion, Inc., priority 2003, dated 2008)
# Where two headings read alike, the source gives them in different places.
# Experiments:
# adult male Wistar rats = test: SCORE-2000 sleep-wakefulness, locomotor activity and body temperature monitoring; type: in vivo, rat
# hERG = hERG (Homo sapiens, UniProt Q12809)
# M2 muscarinic receptor = target: T1, M2 muscarinic receptor (Homo sapiens, UniProt P08172); test: Muscarinic M2 binding assay; set-up: purchased PerkinElmer, Inc., Wellesley, Mass; host or cells: CHO cells; details: for Ki: read-out: Ki M2
# T1 sequence (P08172 1-466): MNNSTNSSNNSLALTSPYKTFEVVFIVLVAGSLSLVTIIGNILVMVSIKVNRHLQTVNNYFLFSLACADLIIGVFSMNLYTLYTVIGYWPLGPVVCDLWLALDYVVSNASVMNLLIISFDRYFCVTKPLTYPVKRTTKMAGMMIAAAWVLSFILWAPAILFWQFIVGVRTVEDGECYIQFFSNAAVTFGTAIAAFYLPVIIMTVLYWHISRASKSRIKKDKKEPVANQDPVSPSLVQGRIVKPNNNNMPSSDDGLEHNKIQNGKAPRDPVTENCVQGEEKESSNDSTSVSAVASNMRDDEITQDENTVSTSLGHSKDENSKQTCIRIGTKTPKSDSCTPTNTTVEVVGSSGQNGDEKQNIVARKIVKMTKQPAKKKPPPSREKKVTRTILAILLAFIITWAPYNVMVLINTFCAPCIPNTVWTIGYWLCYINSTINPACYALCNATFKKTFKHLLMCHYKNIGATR
# M1 muscarinic receptor = target: T2, M1 muscarinic receptor (Homo sapiens, UniProt P11229); test: Muscarinic M1 binding assay ([3H]-scopolamine, N-methyl chloride); set-up: purchased PerkinElmer, Inc., Wellesley, Mass; host or cells: CHO cells; details: read-out: Ki M1
# T2 sequence (P11229 1-460): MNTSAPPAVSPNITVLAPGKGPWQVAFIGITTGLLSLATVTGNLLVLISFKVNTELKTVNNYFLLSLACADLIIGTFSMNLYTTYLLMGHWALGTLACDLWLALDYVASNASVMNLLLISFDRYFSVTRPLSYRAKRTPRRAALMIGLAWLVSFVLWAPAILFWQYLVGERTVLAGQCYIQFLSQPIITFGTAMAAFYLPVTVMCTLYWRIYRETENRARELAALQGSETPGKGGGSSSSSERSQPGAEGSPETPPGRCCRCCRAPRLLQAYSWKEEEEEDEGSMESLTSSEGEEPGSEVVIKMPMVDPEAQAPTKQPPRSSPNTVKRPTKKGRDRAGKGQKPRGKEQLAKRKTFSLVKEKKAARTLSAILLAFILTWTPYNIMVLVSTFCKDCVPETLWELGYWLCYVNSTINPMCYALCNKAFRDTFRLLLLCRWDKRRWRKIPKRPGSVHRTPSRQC
# H1 histamine receptor = target: T3, H1 histamine receptor (Bos taurus, UniProt P30546); test: Histamine H1 competitive binding assay ([3H]pyrilamine); set-up: species or system bovine; details: read-out: Ki H1
# T3 construct: the receptors were obtained from bovine cerebellar membrane tissue; from tissue; host or cells: bovine cerebellar membranes
# M3 muscarinic receptor = M3 muscarinic receptor (Homo sapiens, UniProt P20309); test: Muscarinic M3 binding assay; set-up: purchased PerkinElmer, Inc., Wellesley, Mass; host or cells: CHO cells; details: read-out: Ki M3
# Sequence of M3 muscarinic receptor (P20309 whole entry): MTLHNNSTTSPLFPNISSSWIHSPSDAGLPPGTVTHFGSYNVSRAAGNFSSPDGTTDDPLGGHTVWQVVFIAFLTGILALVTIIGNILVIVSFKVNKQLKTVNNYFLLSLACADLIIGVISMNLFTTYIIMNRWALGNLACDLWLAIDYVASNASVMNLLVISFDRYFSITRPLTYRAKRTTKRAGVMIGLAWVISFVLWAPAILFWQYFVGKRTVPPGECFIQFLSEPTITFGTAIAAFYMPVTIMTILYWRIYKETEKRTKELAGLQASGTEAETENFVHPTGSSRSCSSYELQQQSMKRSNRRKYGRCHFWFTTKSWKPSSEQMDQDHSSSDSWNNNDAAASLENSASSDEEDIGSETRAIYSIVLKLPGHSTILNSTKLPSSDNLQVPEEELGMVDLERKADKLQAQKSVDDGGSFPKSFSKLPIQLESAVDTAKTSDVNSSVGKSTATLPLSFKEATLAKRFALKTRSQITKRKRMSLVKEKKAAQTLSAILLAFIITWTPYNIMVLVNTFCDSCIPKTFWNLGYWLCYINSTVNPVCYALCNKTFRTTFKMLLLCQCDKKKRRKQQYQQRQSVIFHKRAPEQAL
# T3 sequence (P30546 whole entry): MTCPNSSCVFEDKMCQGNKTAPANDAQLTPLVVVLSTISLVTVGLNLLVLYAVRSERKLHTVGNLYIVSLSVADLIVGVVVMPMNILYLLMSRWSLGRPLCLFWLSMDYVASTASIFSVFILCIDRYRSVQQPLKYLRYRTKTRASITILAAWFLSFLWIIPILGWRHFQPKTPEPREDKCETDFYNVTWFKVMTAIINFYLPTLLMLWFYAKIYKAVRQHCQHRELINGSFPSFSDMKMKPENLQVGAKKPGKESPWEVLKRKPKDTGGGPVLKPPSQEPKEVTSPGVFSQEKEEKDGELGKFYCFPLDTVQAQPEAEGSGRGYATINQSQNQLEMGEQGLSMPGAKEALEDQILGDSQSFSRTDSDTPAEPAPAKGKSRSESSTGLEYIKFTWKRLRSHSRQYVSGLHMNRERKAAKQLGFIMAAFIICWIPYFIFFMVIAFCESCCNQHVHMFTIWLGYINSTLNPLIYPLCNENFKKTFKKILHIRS
# Sequence of hERG (Q12809 whole entry): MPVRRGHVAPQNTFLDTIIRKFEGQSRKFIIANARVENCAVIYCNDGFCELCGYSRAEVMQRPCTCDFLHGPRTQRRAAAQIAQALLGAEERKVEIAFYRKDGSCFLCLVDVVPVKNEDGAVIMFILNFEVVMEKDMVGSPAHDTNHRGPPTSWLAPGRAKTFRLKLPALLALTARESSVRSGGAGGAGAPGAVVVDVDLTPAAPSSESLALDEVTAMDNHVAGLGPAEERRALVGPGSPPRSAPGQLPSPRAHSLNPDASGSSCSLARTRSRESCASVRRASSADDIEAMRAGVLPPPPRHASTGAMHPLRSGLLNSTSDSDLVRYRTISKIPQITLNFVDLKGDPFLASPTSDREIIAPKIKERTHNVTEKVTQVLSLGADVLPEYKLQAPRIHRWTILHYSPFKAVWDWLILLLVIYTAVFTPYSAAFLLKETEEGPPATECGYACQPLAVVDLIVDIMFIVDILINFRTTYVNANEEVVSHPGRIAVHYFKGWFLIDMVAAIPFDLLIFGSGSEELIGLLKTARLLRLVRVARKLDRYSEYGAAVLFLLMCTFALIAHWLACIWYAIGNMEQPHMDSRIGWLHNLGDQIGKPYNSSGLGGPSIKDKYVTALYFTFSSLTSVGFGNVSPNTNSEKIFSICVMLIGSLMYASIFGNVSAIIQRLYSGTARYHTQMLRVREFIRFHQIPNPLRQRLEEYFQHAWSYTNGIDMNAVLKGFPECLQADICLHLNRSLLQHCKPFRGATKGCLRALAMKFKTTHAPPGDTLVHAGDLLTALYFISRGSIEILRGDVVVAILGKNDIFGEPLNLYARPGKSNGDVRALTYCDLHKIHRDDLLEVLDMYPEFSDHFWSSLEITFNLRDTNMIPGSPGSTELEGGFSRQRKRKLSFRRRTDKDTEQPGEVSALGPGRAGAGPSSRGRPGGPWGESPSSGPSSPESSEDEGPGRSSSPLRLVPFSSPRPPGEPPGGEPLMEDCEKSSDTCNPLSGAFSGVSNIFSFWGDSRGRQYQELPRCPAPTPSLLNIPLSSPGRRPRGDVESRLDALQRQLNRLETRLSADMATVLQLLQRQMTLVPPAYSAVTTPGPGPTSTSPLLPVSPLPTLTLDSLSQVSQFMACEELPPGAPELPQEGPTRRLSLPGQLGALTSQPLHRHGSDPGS
SMILES,LUSB (adult male Wistar rats; dose 10 mg/kg oral at CT-18) [min],NREM (adult male Wistar rats; dose 10 mg/kg oral at CT-18) [min],LUSB (adult male Wistar rats; dose 3 mg/kg oral at CT-18) [min],NREM (adult male Wistar rats; dose 3 mg/kg oral at CT-18) [min],LUSB (adult male Wistar rats; dose 30 mg/kg oral at CT-18) [min],NREM (adult male Wistar rats; dose 30 mg/kg oral at CT-18) [min],also measured
O=C(O)C1(CN2CCC(=C3c4ccccc4COc4ccc(O)cc43)CC2)CC1 [Compound 55b],2.5,7.7,–,–,–,–,–
O=C(O)CCN1CCC(=C2c3ccccc3COc3ccccc32)CC1 [Compound 69e],9.7,28.4,5.6,21.2,–,–,LUSB (adult male Wistar rats; dose 20 mg/kg oral at CT-18): 12.3 min; NREM (adult male Wistar rats; dose 20 mg/kg oral at CT-18): 54.6 min; hERG at micromolar (% blocking of the hERG channel) (hERG): −1.4% @ 1
"C[N+]1(C)C2CC(OC(=O)C(CO)c3ccccc3)CC1C1OC12.[Br-] (single isomer, unassigned; (-)) [(−)-scopolamine, MeBr, (−)-scopolamine, methyl-, bromide, reference compound]",–,–,–,–,–,–,Slope (M2 muscarinic receptor; M2 binding curve (Table 17)): −0.89
COc1ccc2c(c1)COc1ccccc1C2=C1CCN(CCC2(C(=O)O)CC2)CC1 [Compound 62b],–,–,–,–,–,–,Ki (M1 muscarinic receptor): > 10 µM; Ki (M2 muscarinic receptor): > 10 µM; Ki (H1 histamine receptor): 0.0565 µM; Ki (M3 muscarinic receptor): > 10 µM
Cc1ccc2c(c1)COc1ccccc1C2=C1CCN(CC(C)(C)C(=O)O)CC1 [Compound 57a],–,–,–,–,-5.3,-11,–
COc1ccc2c(c1)COc1ccccc1C2=C1CCN(CC2(C(=O)O)CC2)CC1 [Compound 50b],8.1,24.2,6.9,10.7,14.3,51.9,"Ki (M1 muscarinic receptor): > 10 µM; Ki (M2 muscarinic receptor): > 10 µM; Ki (H1 histamine receptor): 0.0698 µM; hERG at micromolar (% blocking of the hERG channel) (hERG; human, 10 µM, pH 7.4): 27.1% @ 10; Ki (M3 muscarinic receptor): > 10 µM"
CC(C)(CN1CCC(=C2c3ccc(F)cc3COc3ccc(F)cc32)CC1)C(=O)O [Compound 48a],10,58.6,11.2,50.8,4.4,39.4,LUSB (adult male Wistar rats; dose 1 mg/kg oral at CT-18): 6.9 min; NREM (adult male Wistar rats; dose 1 mg/kg oral at CT-18): 36.7 min
COc1ccc2c(c1)COc1ccccc1C2=C1CCN(CCC(C)(C)C(=O)O)CC1 [Compound 62a],7.4,23.2,–,–,9.1,25.2,"Ki (M1 muscarinic receptor): > 10 µM; Ki (M2 muscarinic receptor): > 10 µM; Ki (H1 histamine receptor): 0.128 µM; hERG at micromolar (% blocking of the hERG channel) (hERG; human, 10 µM, pH 7.4): 13.6% @ 10; Ki (M3 muscarinic receptor): > 10 µM"
CC(C)(CCN1CCC(=C2c3ccc(C(F)(F)F)cc3COc3ccccc32)CC1)C(=O)O [Compound 64a],–,–,–,–,12.3,33.5,–
CC(C)(CN1CCC(=C2c3ccccc3COc3ccc(O)cc32)CC1)C(=O)O [Compound 55a],–,–,–,–,2,12.8,–
COc1ccc2c(c1)COc1ccc(OC)cc1C2=C1CCN(CC(C)(C)C(=O)O)CC1 [Compound 10a],4,15.1,1.6,-8.9,6.8,30.9,LUSB (adult male Wistar rats; dose 1 mg/kg oral at CT-18): 3.1 min; NREM (adult male Wistar rats; dose 1 mg/kg oral at CT-18): -5 min
COc1ccc2c(c1)C(=C1CCN(CC(C)(C)C(=O)O)CC1)c1ccccc1CO2 [Compound 52a],5.7,26.8,8.2,13.6,10.1,37.2,–
O=C(O)C1(CCN2CCC(=C3c4ccc(O)cc4COc4ccccc43)CC2)CC1 [Compound 63b],2.1,-4.8,–,–,–,–,–
CC(C)(CN1CCC(=C2c3ccccc3COc3ccccc32)CC1)C(=O)O [Compound 69a],13.1,32.8,7.1,32.2,13.5,40,"hERG at micromolar (% blocking of the hERG channel) (hERG; human, 1 µM, pH 7.4): 6.1% @ 1"
O=C(O)C1(CN2CCC(=C3c4ccc(O)cc4COc4ccccc43)CC2)CC1 [Compound 56b],–,–,–,–,-2.9,-9.9,–
CC(C)(CN1CCC(=C2c3ccc(C(F)(F)F)cc3COc3ccccc32)CC1)C(=O)O [Compound 54a],–,–,–,–,6.1,28.6,–

SMILES,LUSB (adult male Wistar rats; dose 10 mg/kg oral at CT-18) [min],NREM (adult male Wistar rats; dose 10 mg/kg oral at CT-18) [min],LUSB (adult male Wistar rats; dose 3 mg/kg oral at CT-18) [min],NREM (adult male Wistar rats; dose 3 mg/kg oral at CT-18) [min],LUSB (adult male Wistar rats; dose 30 mg/kg oral at CT-18) [min],NREM (adult male Wistar rats; dose 30 mg/kg oral at CT-18) [min],also measured
CC(C)(CCN1CCC(=C2c3ccc(Cl)cc3COc3ccccc32)CC1)C(=O)O [Compound 68a],7.8,45.9,4.3,20.9,11.9,50.8,hERG at micromolar (% blocking of the hERG channel) (hERG): 25.3% @ 10
CC(C)(CCN1CCC(=C2c3ccccc3COc3ccc(O)cc32)CC1)C(=O)O [Compound 65a],1.5,6.2,–,–,–,–,–
CC(C)(CN1CCC(=C2c3ccc(F)cc3COc3ccc(O)cc32)CC1)C(=O)O [Compound 58a],7.6,-12.5,5.3,9.1,–,–,–
COc1ccc2c(c1)C(=C1CCN(CC(C)(C)C(=O)O)CC1)c1ccc(F)cc1CO2 [Compound 46a],8.2,36,5,12.1,–,–,Ki (M1 muscarinic receptor): > 10 µM; Ki (M2 muscarinic receptor): 2.45 µM; Ki (H1 histamine receptor): 0.134 µM; Ki (M3 muscarinic receptor): > 10 µM
Cc1ccc2c(c1)COc1ccccc1C2=C1CCN(CCC(C)(C)C(=O)O)CC1 [Compound 66a],–,–,–,–,8.8,27.8,–
CC(C)(CCCN1CCC(=C2c3ccccc3COc3ccccc32)CC1)C(=O)O [Compound 71a],–,–,–,–,3.6,8.1,–
COc1ccc2c(c1)C(=C1CCN(CC3(C(=O)O)CC3)CC1)c1ccccc1CO2 [Compound 52b],2.9,7.5,–,–,7.1,26.8,–
CCC(CC)(CN1CCC(=C2c3ccc(F)cc3COc3ccccc32)CC1)C(=O)O [Compound 49c],–,–,–,–,–,–,"Ki (M1 muscarinic receptor): > 10 µM; Ki (M2 muscarinic receptor): > 10 µM; Ki (H1 histamine receptor): 0.0299 µM; hERG at micromolar (% blocking of the hERG channel) (hERG; human, 10 µM, pH 7.4): 19.7% @ 10; Ki (M3 muscarinic receptor): > 10 µM"
COc1ccc2c(c1)C(=C1CCN(CCC3(C(=O)O)CC3)CC1)c1ccccc1CO2 [Compound 67b],4.6,12.6,–,–,10,21.1,Ki (M1 muscarinic receptor): > 10 µM; Ki (M2 muscarinic receptor): > 10 µM; Ki (H1 histamine receptor): 0.0625 µM; Ki (M3 muscarinic receptor): > 10 µM
CC(C)(CN1CCC(=C2c3ccccc3COc3ccc(F)cc32)CC1)C(=O)O [Compound 53a],14.4,51.5,17.2,38.6,11.9,66.3,LUSB (adult male Wistar rats; dose 1 mg/kg oral at CT-18): 5 min; NREM (adult male Wistar rats; dose 1 mg/kg oral at CT-18): 14.6 min
CC(C)(CN1CCC(=C2c3ccc(O)cc3COc3ccccc32)CC1)C(=O)O [Compound 56a],–,–,–,–,4.3,6.4,–
O=C(O)C1(CCN2CCC(=C3c4ccccc4COc4ccc(O)cc43)CC2)CC1 [Compound 65b],3.9,-5.7,–,–,–,–,–
CC(C)(CN1CCC(=C2c3ccc(O)cc3COc3ccc(F)cc32)CC1)C(=O)O [Compound 60a],3.7,-5.2,–,–,–,–,–
CC(C)(CCN1CCC(=C2c3ccc(O)cc3COc3ccccc32)CC1)C(=O)O [Compound 63a],–,–,–,–,4.6,9.6,–
COc1ccc2c(c1)C(=C1CCN(CCC(C)(C)C(=O)O)CC1)c1ccccc1CO2 [Compound 67a],–,–,–,–,6.5,-11.5,–
